Results: patent publication US9474790B2, “Stable, protracted GLP-1/glucagon receptor co-agonists for medical use” (Novo Nordisk A/S, priority 2013, dated 2016)
Numbered stars: 1 amine (or outer) side, 2 acyl side, 3 side chain; on linkers, the order of the positions; unused ones are H or OH. Square brackets hold non-standard residues; d marks the D form. Side chains are listed from the residue outwards. Peptide text beside a SMILES is read from it. * marks the point of attachment. C18 diacid = O=C(O)CCCCCCCCCCCCCCCCC(=O)*; γGlu = O=C(O)[C@H](CCC(=O)[*:2])N[*:1]; AEEA = NCCOCCOCC(=O)O; Aib = CC(C)(N)C(=O)O

target: T1, human GLP-1 receptor (Homo sapiens, UniProt P43220); test: GLP-1 receptor potency, CRE luciferase reporter gene assay in BHK cells; assay type: cell-based; settings: BHK cells expressing human GLP-1 receptor, read-out: EC50 GLP-1R
T1 construct: expressed in transfected cells; host or cells: BHK cells (parent BHKTS13), clone FCW467-12A/KZ10-1, with CRE luciferase
T1 sequence (P43220 24-463): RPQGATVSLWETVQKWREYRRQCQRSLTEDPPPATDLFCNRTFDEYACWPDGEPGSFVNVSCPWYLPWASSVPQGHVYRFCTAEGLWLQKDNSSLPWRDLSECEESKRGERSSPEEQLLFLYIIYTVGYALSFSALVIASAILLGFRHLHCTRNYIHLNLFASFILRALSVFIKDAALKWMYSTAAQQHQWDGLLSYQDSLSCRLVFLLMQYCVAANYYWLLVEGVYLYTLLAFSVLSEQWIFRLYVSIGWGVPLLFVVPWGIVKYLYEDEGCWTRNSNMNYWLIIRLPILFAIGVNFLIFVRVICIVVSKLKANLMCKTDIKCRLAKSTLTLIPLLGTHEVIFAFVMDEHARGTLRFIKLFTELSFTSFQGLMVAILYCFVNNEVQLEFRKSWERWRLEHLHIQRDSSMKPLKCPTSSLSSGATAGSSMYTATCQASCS
Procedure: The purpose of this example was to test the potency, of the glucagon derivatives of the invention, in vitro. The in vitro potency is the measure of human GLP-1 receptor or glucagon receptor activation, respectively, in a whole cell assay.
In vitro potency was determined by measuring the response of human GLP-1 or glucagon receptor, respectively, in a reporter gene assay. The assay was performed in a stably transfected BHK cell line that expresses either the human GLP-1 receptor or the human glucagon receptor and contains the DNA for the cAMP response element (CRE) coupled to a promoter and the gene for firefly luciferase (CRE luciferase). […] When assay incubation was completed, the luciferase substrate (luciferin) was added and the enzyme converted luciferin to oxyluciferin and produces bioluminescence. The luminescence was measured as the readout for the assay.
The cells used in this assay (clone FCW467-12A/KZ10-1) were BHK cells with BHKTS13 as a parent cell line. The cells were derived from a clone (FCW467-12A) that expresses the human GLP-1 receptor and were established by further transfection with
CRE luciferase to obtain the current clone.
The cells were cultured at 5% CO2 in DMEM medium with 10% FBS, 1×GlutaMAX, 1 mg/ml G418, 240 nM MTX (methotrexate) and 1% pen/strep (penicillin/streptomycin). They were aliquoted and stored in liquid nitrogen. Before each assay, an aliquot was taken up and washed three times in PBS before being suspended at the desired concentration in assay medium. For 96-well plates the suspension was made to give a final concentration of 5×10EE3 cells/well.
The following chemicals were used in the assay: Pluronic F-68 (10%) (Gibco 2404), ovalbumin (Sigma A5503), DMEM w/o phenol red (Gibco 11880-028), 1 M Hepes (Gibco 15630), Glutamax 100× (Gibco 35050) and steadylite plus (PerkinElmer 6016757).
Assay Medium consisted of DMEM w/o phenol red, 10 mM Hepes, lx GlutaMAX, 2% Ovalbumin and 0.2% Pluronic F-68.
Cell stocks were thawed in a 37° C. water bath. Cells were washed three times in PBS. The cells were counted and adjusted to 5×10EE3 cells/50 μl (1×10EE5 cells/ml) in Assay Medium. A 50 μl aliquot of cells was transferred to each well in the assay plate.
Stocks of the test compounds and reference compounds were diluted to a concentration of […] in Assay Medium. Compounds were diluted 10-fold to give the following concentrations: 2×10EE-6 M, 2×10EE-7 M, 2×10EE-8 M; 2×10EE-9 M, 2×10EE-10 M, 2×10EE-11 M, 2×10EE-12 M and 2×10EE-13 M. For each compound a blank assay medium control was also included.
A 50 μl aliquot of compound or blank was transferred from the dilution plate to the assay plate. Compounds were tested at the following final concentrations: 1×10EE-6 M, 1×10EE-7 M, 1×10EE-8 M; 1×10EE-9 M, 1×10EE-10 M, 1×10EE-11 M and 1×10EE-12 M and 1×10EE-13 M.
The assay plate was incubated for 3 h in a 5% CO2 incubator at 37° C. The assay plate was removed from the incubator and allowed to stand at room temperature for 15 min. A 100 μl aliquot of steadylite plus reagent was added to each well of the assay plate (reagent is light sensitive). Each assay plate was covered with aluminum foil to protect it from light and shaken for 30 min at room temperature. Each assay plate was read in a Perkin Elmer TopCount NXT instrument.
The data from the TopCount instrument was transferred to GraphPad Prism software. The software performed a non-linear regression (log(agonist) vs response-Variable slope (four parameter)). EC50 values were calculated by the software and reported in pM.

Compound	EC50 [nM]
CC(C)C[C@H](NC(=O)[C@H](Cc1ccc(O)cc1)NC(=O)[C@H](CCCCN)NC(=O)[C@H](CO)NC(=O)[C@H](CC(C)C)NC(=O)[C@H](CC(=O)O)NC(=O)[C@H](CO)NC(=O)[C@@H](NC(=O)[C@H](Cc1ccccc1)NC(=O)[C@@H](NC(=O)CNC(=O)[C@H](CCC(N)=O)NC(=O)C(C)(C)NC(=O)[C@@H](N)Cc1c[nH]cn1)[C@@H](C)O)[C@@H](C)O)C(=O)N[C@@H](CC(=O)O)C(=O)N[C@@H](CO)C(=O)N[C@@H](CCCNC(=N)N)C(=O)N[C@@H](CCCNC(=N)N)C(=O)N[C@@H](C)C(=O)N[C@@H](CCCNC(=N)N)C(=O)N[C@@H](CCCCNC(=O)CC[C@H](NC(=O)CC[C@H](NC(=O)COCCOCCNC(=O)COCCOCCNC(=O)CC[C@H](NC(=O)CCCCCCCCCCCCCCCCC(=O)O)C(=O)O)C(=O)O)C(=O)O)C(=O)N[C@@H](Cc1ccccc1)C(=O)N[C@H](C(=O)N[C@@H](CCC(N)=O)C(=O)N[C@@H](Cc1c[nH]c2ccccc12)C(=O)N[C@@H](CC(C)C)C(=O)N[C@@H](CC(C)C)C(=O)N[C@@H](CO)C(=O)N[C@H](C(N)=O)[C@@H](C)O)C(C)C [Example 2] (H-H[Aib]QGTFTSDLSKYLDSRRARK([γGlu-γGlu-AEEA-AEEA-γGlu-C18 diacid])FVQWLLST-NH2; N-terminus assumed)	0.044
CC(C)C[C@H](NC(=O)[C@H](Cc1ccc(O)cc1)NC(=O)[C@H](CCCCN)NC(=O)[C@H](CO)NC(=O)[C@H](CC(C)C)NC(=O)[C@H](CC(=O)O)NC(=O)[C@H](CO)NC(=O)[C@@H](NC(=O)[C@H](Cc1ccccc1)NC(=O)[C@@H](NC(=O)CNC(=O)[C@H](CCC(N)=O)NC(=O)C(C)(C)NC(=O)[C@@H](N)Cc1c[nH]cn1)[C@@H](C)O)[C@@H](C)O)C(=O)N[C@@H](CC(=O)O)C(=O)N[C@@H](CO)C(=O)N[C@@H](CCCNC(=N)N)C(=O)N[C@@H](CCCNC(=N)N)C(=O)N[C@@H](C)C(=O)N[C@@H](CCCNC(=N)N)C(=O)N[C@@H](CC(=O)O)C(=O)N[C@@H](Cc1ccccc1)C(=O)N[C@H](C(=O)N[C@@H](CCCCNC(=O)CC[C@H](NC(=O)CC[C@H](NC(=O)COCCOCCNC(=O)COCCOCCNC(=O)CC[C@H](NC(=O)CCCCCCCCCCCCCCCCC(=O)O)C(=O)O)C(=O)O)C(=O)O)C(=O)N[C@@H](Cc1c[nH]c2ccccc12)C(=O)N[C@@H](CC(C)C)C(=O)N[C@@H](CC(C)C)C(=O)N[C@@H](CO)C(=O)N[C@H](C(N)=O)[C@@H](C)O)C(C)C [Example 3, N^ε24-[(4S)-4-carboxy-4-[[(4S)-4-carboxy-4-[[2-[2-[2-[[2-[2-[2-[[(4S)-4-carboxy-4-(17-carboxyheptadecanoylamino)butanoyl]amino]ethoxy]ethoxy]acetyl]amino]ethoxy]ethoxy]acetyl]amino]butanoyl]amino]butanoyl]-[Aib2,Leu10,Arg20,Lys24,Leu27,Ser28]-Glucagon amide] (H-H[Aib]QGTFTSDLSKYLDSRRARDFVK([γGlu-γGlu-AEEA-AEEA-γGlu-C18 diacid])WLLST-NH2; N-terminus assumed)	0.006
CC(C)C[C@H](NC(=O)[C@H](CC(C)C)NC(=O)[C@H](Cc1c[nH]c2ccccc12)NC(=O)[C@H](CCC(N)=O)NC(=O)[C@@H](NC(=O)[C@H](Cc1ccccc1)NC(=O)[C@H](CC(=O)O)NC(=O)[C@H](CCCNC(=N)N)NC(=O)[C@H](C)NC(=O)[C@H](CCCNC(=N)N)NC(=O)[C@H](CCCNC(=N)N)NC(=O)[C@H](CO)NC(=O)[C@H](CC(=O)O)NC(=O)[C@H](CC(C)C)NC(=O)[C@H](Cc1ccc(O)cc1)NC(=O)[C@H](CCCCN)NC(=O)[C@H](CO)NC(=O)[C@H](CC(C)C)NC(=O)[C@H](CC(=O)O)NC(=O)[C@H](CO)NC(=O)[C@@H](NC(=O)[C@H](Cc1ccccc1)NC(=O)[C@@H](NC(=O)CNC(=O)[C@H](CCC(N)=O)NC(=O)C(C)(C)NC(=O)[C@@H](N)Cc1c[nH]cn1)[C@@H](C)O)[C@@H](C)O)C(C)C)C(=O)N[C@@H](CO)C(=O)N[C@@H](CCCCNC(=O)CC[C@H](NC(=O)CC[C@H](NC(=O)COCCOCCNC(=O)COCCOCCNC(=O)CC[C@H](NC(=O)CCCCCCCCCCCCCCCCC(=O)O)C(=O)O)C(=O)O)C(=O)O)C(N)=O [Example 5, N^ε29-[(4S)-4-carboxy-4-[[(4S)-4-carboxy-4-[[2-[2-[2-[[2-[2-[2-[[(4S)-4-carboxy-4-(17-carboxyheptadecanoylamino)butanoyl]amino]ethoxy]ethoxy]acetyl]amino]ethoxy]ethoxy]acetyl]amino]butanoyl]amino]butanoyl]-[Aib2,Leu10,Arg20,Leu27,Ser28,Lys29]-Glucagon amide] (H-H[Aib]QGTFTSDLSKYLDSRRARDFVQWLLSK([γGlu-γGlu-AEEA-AEEA-γGlu-C18 diacid])-NH2; N-terminus assumed)	0.005
CC(C)C[C@H](NC(=O)[C@H](Cc1ccc(O)cc1)NC(=O)[C@H](CCCCN)NC(=O)[C@H](CO)NC(=O)[C@H](CC(C)C)NC(=O)[C@H](CC(=O)O)NC(=O)[C@H](CO)NC(=O)[C@@H](NC(=O)[C@H](Cc1ccccc1)NC(=O)[C@@H](NC(=O)CNC(=O)[C@H](CCC(N)=O)NC(=O)C(C)(C)NC(=O)[C@@H](N)Cc1c[nH]cn1)[C@@H](C)O)[C@@H](C)O)C(=O)N[C@@H](CC(=O)O)C(=O)N[C@@H](CO)C(=O)N[C@@H](CCCNC(=N)N)C(=O)N[C@@H](CCCNC(=N)N)C(=O)N[C@@H](C)C(=O)N[C@@H](CCCNC(=N)N)C(=O)N[C@@H](CC(=O)O)C(=O)N[C@@H](Cc1ccccc1)C(=O)N[C@H](C(=O)N[C@@H](CCC(N)=O)C(=O)N[C@@H](Cc1c[nH]c2ccccc12)C(=O)N[C@@H](CC(C)C)C(=O)N[C@@H](CC(C)C)C(=O)N[C@@H](CO)C(=O)N[C@H](C(=O)N[C@@H](CCCCNC(=O)CC[C@H](NC(=O)CC[C@H](NC(=O)COCCOCCNC(=O)COCCOCCNC(=O)CC[C@H](NC(=O)CCCCCCCCCCCCCCCCC(=O)O)C(=O)O)C(=O)O)C(=O)O)C(N)=O)[C@@H](C)O)C(C)C [Example 6, N^α-([Aib2,Leu10,Arg20,Leu27,Ser28]-Glucagonyl)-N{Epsilon}[(4S)-4-carboxy-4-[[(4S)-4-carboxy-4-[[2-[2-[2-[[2-[2-[2-[[(4S)-4-carboxy-4-(17-carboxyheptadecanoylamino)butanoyl]amino]ethoxy]ethoxy]acetyl]amino]ethoxy]ethoxy]acetyl]amino]butanoyl]amino]butanoyl]Lys amide] (H-H[Aib]QGTFTSDLSKYLDSRRARDFVQWLLSTK([γGlu-γGlu-AEEA-AEEA-γGlu-C18 diacid])-NH2)	0.02
